Assay results published in the NIST ThermoML archive (doi:10.1016/j.jct.2005.05.019).
Values joined by “and” are separate entries in the source; they are usually repeats but may differ in a detail not shown here. Identical values can stand only once.

Details: Liquid; for mass density: Bellows volumetry; for vapor or sublimation pressure: Closed cell (Static) method

CC(C)C [2-methylpropane]
mass density
Details	280 K	300 K	320 K	340 K	360 K	380 K	400 K	420 K	440 K
1000 kPa	574.99 kg/m3	550.5 kg/m3	523.69 kg/m3	–	–	–	–	–	–
2000 kPa	576.63 kg/m3	–	526.51 kg/m3	496.95 kg/m3	461.05 kg/m3	–	–	–	–
3000 kPa	578.23 kg/m3	554.67 kg/m3	529.22 kg/m3	500.67 kg/m3	467.32 kg/m3	422.93 kg/m3 and 422.97 kg/m3	–	–	–
4000 kPa	–	–	–	–	–	–	374.9 kg/m3	–	–
5000 kPa	581.15 kg/m3	558.59 kg/m3	534.28 kg/m3	507.71 kg/m3	477.66 kg/m3	441.32 kg/m3 and 441.54 kg/m3	394.02 kg/m3	–	–
10000 kPa	587.88 kg/m3	567.19 kg/m3	545.21 kg/m3	521.75 kg/m3	496.94 kg/m3	468.99 kg/m3 and 469.14 kg/m3	438.72 kg/m3	404.86 kg/m3	366.35 kg/m3
20000 kPa	600.12 kg/m3	581.58 kg/m3	562.64 kg/m3	542.79 kg/m3	522.77 kg/m3	501.27 kg/m3 and 501.58 kg/m3	479.65 kg/m3	457.86 kg/m3	435.91 kg/m3
30000 kPa	610.42 kg/m3	593.56 kg/m3	576.49 kg/m3	558.72 kg/m3	541.32 kg/m3	522.56 kg/m3 and 522.99 kg/m3	504.24 kg/m3	486.44 kg/m3	469.37 kg/m3
40000 kPa	619.36 kg/m3	603.71 kg/m3	587.85 kg/m3	571.75 kg/m3	555.78 kg/m3	539.38 kg/m3	522.85 kg/m3	507.08 kg/m3	492.27 kg/m3
50000 kPa	627.41 kg/m3	612.8 kg/m3	597.69 kg/m3	582.77 kg/m3	568.17 kg/m3	552.44 kg/m3 and 552.92 kg/m3	537.71 kg/m3	523.34 kg/m3	510.21 kg/m3
60000 kPa	634.74 kg/m3	620.94 kg/m3	606.61 kg/m3	592.49 kg/m3	578.92 kg/m3	564.45 kg/m3	550.04 kg/m3	537.02 kg/m3	524.88 kg/m3
70000 kPa	641.52 kg/m3	628.12 kg/m3	614.55 kg/m3	601.18 kg/m3	588.19 kg/m3	574.7 kg/m3	561.13 kg/m3	548.69 kg/m3	537.25 kg/m3
80000 kPa	647.64 kg/m3	634.84 kg/m3	621.94 kg/m3	609.11 kg/m3	596.75 kg/m3	583.67 kg/m3	570.85 kg/m3	559.13 kg/m3	548.44 kg/m3
90000 kPa	653.57 kg/m3	641.05 kg/m3	628.85 kg/m3	616.5 kg/m3	604.39 kg/m3	592.06 kg/m3	579.4 kg/m3	568.43 kg/m3	558.09 kg/m3
100000 kPa	659 kg/m3	646.84 kg/m3	635.06 kg/m3	622.79 kg/m3	611.7 kg/m3	599.29 kg/m3 and 599.44 kg/m3	587.43 kg/m3	576.8 kg/m3	567 kg/m3
120000 kPa	669.09 kg/m3	657.68 kg/m3	646.41 kg/m3	634.99 kg/m3	624.5 kg/m3	612.95 kg/m3	601.69 kg/m3	591.55 kg/m3	582.66 kg/m3
140000 kPa	678.21 kg/m3	667.21 kg/m3	656.55 kg/m3	645.72 kg/m3	635.8 kg/m3	624.62 kg/m3	614.21 kg/m3	604.56 kg/m3	595.99 kg/m3
160000 kPa	686.38 kg/m3	676.01 kg/m3	665.84 kg/m3	655.32 kg/m3	645.85 kg/m3	635.26 kg/m3	625.04 kg/m3	616.21 kg/m3	608.09 kg/m3
180000 kPa	694.06 kg/m3	684 kg/m3	674.38 kg/m3	664.26 kg/m3	655.11 kg/m3	644.86 kg/m3	635.05 kg/m3	626.52 kg/m3	618.72 kg/m3
200000 kPa	701.06 kg/m3	691.43 kg/m3	682.01 kg/m3	672.25 kg/m3	663.39 kg/m3	653.7 kg/m3 and 653.25 kg/m3	644.07 kg/m3	635.99 kg/m3	628.4 kg/m3

Details	vapor or sublimation pressure [kPa]
280 K	199.8
300 K	369.8
